According to publication PMC12589998, “Development and validation of a UHPLC-QqQ-MS/MS method for simultaneous determination of fifteen major components from Oroxyli seed extract in rat plasma and its application in the pharmacokinetic study” (Frontiers in Pharmacology, 2025):
“Also recorded” adds a separate entry of the source. Where two headings read alike, the source gives them in different places.

What was measured:
[1] = Stability of the analytes in rat plasma samples under storage conditions; type: physicochemical; settings: n = 6
Protocol: The bioanalytical method validation was evaluated for specificity, linearity, sensitivity, precision and accuracy, recovery, matrix effect, and stability to ensure compliance with the U.S. Food and Drug Administration (FDA) guidance on precise quantitative analysis ([Center for Drug Evaluation and Research of the U.S., 2018]). The assessment of specificity was conducted by comparing the chromatograms obtained from blank plasma, blank plasma spiked with the target components, and samples gathered following the oral administration of OS extract. Calibration curves were constructed by plotting the ratio for the peak area of the analyte to IS versus the concentration, with 1/x^2 serving as the weighting factor. The lower limit of quantification (LLOQ) was defined as the concentration at which a signal to noise ratio of […] 10 was achievable. The evaluation of precision and accuracy involved the analysis of six QC samples, both within a single day and over 3 consecutive days. Accuracy was expressed as the relative error (RE), whereas precision was gauged via relative standard deviation (RSD). Extraction recovery was ascertained by juxtaposing the responses of analytes in extracted samples against those in samples that were spiked post-extraction. The matrix effect was scrutinized by determining the ratio of the responses of the analytes in post-extraction spiked samples to those in the mixed standard solution. The stability of the analytes in plasma samples was explored under diverse conditions: encompassing a 12-h period in an autosampler, a 4-h interval at room temperature, three cycles of freezing–thawing, and a 7-day duration at −80 °C.
The retention times of the analyte peaks were consistent with those in the spiked samples. […] The LLOQs for chrysin, chrysin-7-O-β-D-glucuronide, hispidulin, wogonoside, quercetin, quercetin-7-O-β-D-glucoside, baicalin, baicalein, acacetin, oroxin A, oroxin B, oroxylin A, oroxylin A-7-O-β-D-glucuronide, apigenin, and scutellarein were 1.0, 2.0, 1.0, 0.3, 1.0, 0.1, 9.0, 6.0, 0.3, 6.0, 4.0, 1.0, 2.0, 0.5, and 0.3 ng/mL, respectively. In Supplementary Table S2, the RE for accuracy is between −13.77% and 12.55%, and the RSD for precision is below 14.55% (both intra- and inter-day). […] The matrix effect varied from 60.15% to 115.53%, with RSD values below 10.54%. In Supplementary Table S4, the RSD values for stability of the analytes are found to be lower than 13.98%, meaning that these components were stable under the following conditions: encompassing a 12-h period in an autosampler, a 4-h interval at room temperature, three cycles of freezing and thawing, and a 7-day duration at −80 °C.

[2] = Pharmacokinetic study in rats after oral administration of OS extract (UHPLC-QqQ-MS/MS of plasma); type: in vivo, rat; settings: for concentration at 0.5 h / AUC(0-t) / AUC(0-inf) / Cmax / half-life / Tmax: male
Protocol: The UHPLC-QqQ-MS/MS system consisted of a 1290 UHPLC and a 6470 mass spectrometer (Agilent Technologies). Chromatographic separation was realized on utilizing an ACQUITY UPLC BEH C18 column (2.1 × 100 mm, 1.7 μm) maintained at 35 °C. The mobile phase consisting of 0.1% formic acid in water (A) and acetonitrile (B) was utilized with the elution program set at 0 min–1 min, 5% B–30% B; 1 min–4 min, 30% B– 50% B; 4 min–8 min, and 50% B–90% B. The injection volume was 5 μL, and the flow rate was 0.3 mL/min. The mass spectrometry parameters in the negative ion mode, gas temperature, flow rate, and nebulizer pressure were 300 °C, 7 L/min, and 35 psi, respectively. The mass spectra properties of the 15 analytes and the IS are illustrated in Table 1.
To 100 μL of the plasma sample, 20 μL of methanol, 20 μL of IS solution (methylparaben, 1 μg/mL), and 5 μL of formic acid were added and vortexed for a duration of 2 min. Subsequently, the mixture underwent extraction with 800 μL of acetonitrile for 3 min. Following 10 min of centrifugation at 12,000 g, the supernatant was collected and evaporated to dryness under N2 to obtain the residue. Finally, the residue was reconstituted in 50% methanol (100 μL) and utilized for analysis.
Before initiating the study, six male SD rats underwent a 12-h fasting period, during which they were granted unrestricted access to water. Then, the rats were administered an oral dose of 3 g/kg of the OS extract, which had been dissolved in 0.5% CMC-Na aqueous solution. Blood samples, approximately 200 μL each, were collected at various time points: before administration and at 0.03, 0.08, 0.17, 0.25, 0.5, 0.75, 1, 2, 4, 6, 8, 10, 12, 24, 36, and 48 h post-administration. Following 10 min of centrifugation at 6,000 g, the resultant samples were stored at −80 °C.
The developed method was effectively applied to study the pharmacokinetics in rats following oral administration of the OS extract. […] This was likely due to their low concentrations in the OS extract. Ultimately, nine components (chrysin, chrysin-7-O-β-D-glucuronide, baicalin, baicalein, oroxin A, oroxin B, oroxylin A, oroxylin A-7-O-β-D-glucuronide, and scutellarein) were successfully fitted with pharmacokinetic parameters. The average plasma concentration–time profiles of these substances are depicted in Figure 3. […] All data were presented as the mean ± standard deviation (Mean ± SD).

[3] = spiked concentration 6400 ng/mL
[4] = SD, 3 g/kg, rat plasma collected 0.5 h after oral administration of the OS extract, read-out: Concentration printed in MRM chromatogram of plasma sample (Figure 2C)
[5] = rat plasma, oral 3 g/kg OS extract, n = 6, mean ± SD, read-out: AUC(0-t)
[6] = rat plasma, oral 3 g/kg OS extract, n = 6, mean ± SD, read-out: AUC(0-∞)
[7] = rat plasma, oral 3 g/kg OS extract, n = 6, mean ± SD, read-out: Cmax
[8] = rat plasma, oral 3 g/kg OS extract, n = 6, mean ± SD, read-out: T1/2 (converted)
[9] = rat plasma, oral 3 g/kg OS extract, n = 6, mean ± SD, read-out: Tmax
[10] = rat plasma after oral OS extract
[11] = spiked concentration 1600 ng/mL

## O=c1cc(-c2ccccc2)oc2cc(O)c(O)c(O)c12 [Baicalein, baicalein]
[1]; spiked concentration 40 ng/mL
  Measured, -80°C for 7 days: 38.12 ± 3.24 ng/mL
  Measured, Autosampler for 12 h: 39.31 ± 4.16 ng/mL
  Measured, Room temperature for 4 h: 40.41 ± 3.19 ng/mL
  Measured, Three freeze-thaw cycles: 38.12 ± 3.24 ng/mL
[1]; spiked concentration 400 ng/mL
  Measured, -80°C for 7 days: 409.67 ± 26.03 ng/mL
  Measured, Autosampler for 12 h: 393.06 ± 21.11 ng/mL
  Measured, Room temperature for 4 h: 389.14 ± 35.85 ng/mL
  Measured, Three freeze-thaw cycles: 409.67 ± 26.03 ng/mL
[1]; [3]
  Measured, -80°C for 7 days: 5967.02 ± 503.93 ng/mL
  Measured, Autosampler for 12 h: 6241.15 ± 404.47 ng/mL
  Measured, Room temperature for 4 h: 6247.34 ± 389.56 ng/mL
  Measured, Three freeze-thaw cycles: 5967.02 ± 503.93 ng/mL
[2]; [4]
  concentration at 0.5 h: 400 ng/mL
[2]; [5]
  AUC(0-t): 4200 ng·h/mL
[2]; [6]
  AUC(0-inf): 4600 ng·h/mL
[2]; [7]
  Cmax: 2930 ng/mL
[2]; [8]
  half-life: 2.99 ± 1.18 h
[2]; [9]
  Tmax: 0.06 ± 0.03 h

## O=C(O)[C@H]1O[C@@H](Oc2cc(O)c3c(=O)cc(-c4ccccc4)oc3c2)[C@H](O)[C@@H](O)[C@@H]1O [Chrysin-7-O-β-D-glucuronide, chrysin-7-O-β-D-glucuronide]
[1]; spiked concentration 40 ng/mL
  Measured, -80°C for 7 days: 37.32 ± 1.14 ng/mL
  Measured, Autosampler for 12 h: 39.57 ± 2.48 ng/mL
  Measured, Room temperature for 4 h: 39.19 ± 3.16 ng/mL
  Measured, Three freeze-thaw cycles: 43.49 ± 1.13 ng/mL
[1]; spiked concentration 400 ng/mL
  Measured, -80°C for 7 days: 409.88 ± 38.24 ng/mL
  Measured, Autosampler for 12 h: 419.16 ± 29.59 ng/mL
  Measured, Room temperature for 4 h: 419.25 ± 24.55 ng/mL
  Measured, Three freeze-thaw cycles: 402.45 ± 17.08 ng/mL
[1]; [3]
  Measured, -80°C for 7 days: 6210.06 ± 535.52 ng/mL
  Measured, Autosampler for 12 h: 5954.05 ± 243.71 ng/mL
  Measured, Room temperature for 4 h: 6145.55 ± 285.25 ng/mL
  Measured, Three freeze-thaw cycles: 6316.77 ± 188.36 ng/mL
[2]; [4]
  concentration at 0.5 h: 879 ng/mL
[2]; [5]
  AUC(0-t): 43500 ng·h/mL
[2]; [6]
  AUC(0-inf): 44900 ng·h/mL
[2]; [7]
  Cmax: 3320 ng/mL
[2]; [8]
  half-life: 4.79 ± 2.28 h
[2]; [9]
  Tmax: 10 ± 2 h

## OCc1ccccc1O[C@@H]1O[C@H](CO)[C@@H](O)[C@H](O)[C@H]1O [salicin]
[2]; [9]
  Tmax: ~10 h

## COc1c(O)cc2oc(-c3ccc(O)cc3)cc(=O)c2c1O [Hispidulin, hispidulin]
[1]; spiked concentration 2 ng/mL
  Measured, -80°C for 7 days: 1.85 ± 0.14 ng/mL
  Measured, Autosampler for 12 h: 1.79 ± 0.08 ng/mL
  Measured, Room temperature for 4 h: 1.87 ± 0.12 ng/mL
  Measured, Three freeze-thaw cycles: 1.77 ± 0.14 ng/mL
[1]; spiked concentration 20 ng/mL
  Measured, -80°C for 7 days: 19.90 ± 2.31 ng/mL
  Measured, Autosampler for 12 h: 21.61 ± 2.09 ng/mL
  Measured, Room temperature for 4 h: 21.29 ± 2.88 ng/mL
  Measured, Three freeze-thaw cycles: 20.10 ± 2.62 ng/mL
[1]; spiked concentration 320 ng/mL
  Measured, -80°C for 7 days: 280.72 ± 21.00 ng/mL
  Measured, Autosampler for 12 h: 304.61 ± 18.62 ng/mL
  Measured, Room temperature for 4 h: 315.17 ± 13.17 ng/mL
  Measured, Three freeze-thaw cycles: 289.06 ± 17.23 ng/mL
[2]; SD, in vivo, 3 g/kg, rat plasma collected 0.5 h after oral administration of the OS extract, read-out: Concentration printed in MRM chromatogram of plasma sample (Figure 2C)
  concentration at 0.5 h: 36 ng/mL
[2]; [10]
  Plasma levels: too weak to obtain comprehensive pharmacokinetic curves

## O=c1cc(-c2ccccc2)oc2cc(O)cc(O)c12 [Chrysin, chrysin]
[1]; spiked concentration 10 ng/mL
  Measured, -80°C for 7 days: 9.25 ± 0.47 ng/mL
  Measured, Autosampler for 12 h: 11.26 ± 1.24 ng/mL
  Measured, Room temperature for 4 h: 10.87 ± 0.54 ng/mL
  Measured, Three freeze-thaw cycles: 9.15 ± 0.40 ng/mL
[1]; spiked concentration 100 ng/mL
  Measured, -80°C for 7 days: 91.73 ± 5.32 ng/mL
  Measured, Autosampler for 12 h: 101.85 ± 8.18 ng/mL
  Measured, Room temperature for 4 h: 99.57 ± 5.36 ng/mL
  Measured, Three freeze-thaw cycles: 90.99 ± 3.81 ng/mL
[1]; [11]
  Measured, -80°C for 7 days: 1539.20 ± 116.03 ng/mL
  Measured, Autosampler for 12 h: 1687.80 ± 77.00 ng/mL
  Measured, Room temperature for 4 h: 1601.59 ± 94.45 ng/mL
  Measured, Three freeze-thaw cycles: 1525.21 ± 82.94 ng/mL
[2]; SD, rat, in vivo, po
  concentration at 0.5 h: 73 ng/mL
[2]; SD, rat, in vivo, po, 3 g/kg
  AUC(0-inf): 589 ± 303 ng·h/mL
  AUC(0-t): 550 ± 294 ng·h/mL
  Cmax: 519 ± 197 ng/mL
  Tmax: 0.06 ± 0.03 h
  half-life: 4.25 ± 2.01 h

## COc1c(O[C@@H]2O[C@H](C(=O)O)[C@@H](O)[C@H](O)[C@H]2O)cc2oc(-c3ccccc3)cc(=O)c2c1O [Oroxylin A-7-O-β-D-glucuronide, oroxylin A-7-O-β-D-glucuronide]
[1]; spiked concentration 10 ng/mL
  Measured, -80°C for 7 days: 9.25 ± 0.47 ng/mL
  Measured, Autosampler for 12 h: 9.44 ± 1.32 ng/mL
  Measured, Room temperature for 4 h: 11.03 ± 0.43 ng/mL
  Measured, Three freeze-thaw cycles: 9.21 ± 0.83 ng/mL
[1]; spiked concentration 100 ng/mL
  Measured, -80°C for 7 days: 95.03 ± 7.93 ng/mL
  Measured, Autosampler for 12 h: 98.52 ± 5.58 ng/mL
  Measured, Room temperature for 4 h: 108.86 ± 4.87 ng/mL
  Measured, Three freeze-thaw cycles: 90.02 ± 5.94 ng/mL
[1]; [11]
  Measured, -80°C for 7 days: 1626.95 ± 164.45 ng/mL
  Measured, Autosampler for 12 h: 1793.11 ± 46.98 ng/mL
  Measured, Room temperature for 4 h: 1799.31 ± 27.98 ng/mL
  Measured, Three freeze-thaw cycles: 1550.12 ± 77.94 ng/mL
[2]; [4]
  concentration at 0.5 h: 61 ng/mL
[2]; [5]
  AUC(0-t): 11400 ng·h/mL
[2]; [6]
  AUC(0-inf): 11600 ng·h/mL
[2]; [7]
  Cmax: 912 ± 350 ng/mL
[2]; [8]
  half-life: 7.22 ± 1.04 h
[2]; [9]
  Tmax: 9.6 ± 1.67 h
[2]; [10]
  Shape of plasma concentration-time curve: significant bimodal phenomena; also recorded: clear bimodal phenomena
